Patent publication US20090018134A1, “Compounds - 945” (AstraZeneca AB, priority 2007, published 2009)
pIC50: −log10 of the molar value.

Target: T1, mTOR (Homo sapiens, UniProt P42345)
T1 construct: FLAG; made in house
Test: In Vitro mTOR Kinase Assay (Echo), Test (a)(ii)
Format: biochemical
Details: table of enzyme assay Test (a)(ii); read-out: Test (a)(ii) IC50
Method in brief: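 FLAG-tagged human mTOR truncation (residues 1362-2549) expressed in HEK293 cells and FLAG-purified. Compounds dispensed acoustically, reaction 2 h at room temperature, stopped with EDTA. Phosphorylation of biotinylated peptide detected by AlphaScreen with anti-p70 S6K (T389) antibody overnight; IC50 reported.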

T1 sequence (P42345 1362-2549): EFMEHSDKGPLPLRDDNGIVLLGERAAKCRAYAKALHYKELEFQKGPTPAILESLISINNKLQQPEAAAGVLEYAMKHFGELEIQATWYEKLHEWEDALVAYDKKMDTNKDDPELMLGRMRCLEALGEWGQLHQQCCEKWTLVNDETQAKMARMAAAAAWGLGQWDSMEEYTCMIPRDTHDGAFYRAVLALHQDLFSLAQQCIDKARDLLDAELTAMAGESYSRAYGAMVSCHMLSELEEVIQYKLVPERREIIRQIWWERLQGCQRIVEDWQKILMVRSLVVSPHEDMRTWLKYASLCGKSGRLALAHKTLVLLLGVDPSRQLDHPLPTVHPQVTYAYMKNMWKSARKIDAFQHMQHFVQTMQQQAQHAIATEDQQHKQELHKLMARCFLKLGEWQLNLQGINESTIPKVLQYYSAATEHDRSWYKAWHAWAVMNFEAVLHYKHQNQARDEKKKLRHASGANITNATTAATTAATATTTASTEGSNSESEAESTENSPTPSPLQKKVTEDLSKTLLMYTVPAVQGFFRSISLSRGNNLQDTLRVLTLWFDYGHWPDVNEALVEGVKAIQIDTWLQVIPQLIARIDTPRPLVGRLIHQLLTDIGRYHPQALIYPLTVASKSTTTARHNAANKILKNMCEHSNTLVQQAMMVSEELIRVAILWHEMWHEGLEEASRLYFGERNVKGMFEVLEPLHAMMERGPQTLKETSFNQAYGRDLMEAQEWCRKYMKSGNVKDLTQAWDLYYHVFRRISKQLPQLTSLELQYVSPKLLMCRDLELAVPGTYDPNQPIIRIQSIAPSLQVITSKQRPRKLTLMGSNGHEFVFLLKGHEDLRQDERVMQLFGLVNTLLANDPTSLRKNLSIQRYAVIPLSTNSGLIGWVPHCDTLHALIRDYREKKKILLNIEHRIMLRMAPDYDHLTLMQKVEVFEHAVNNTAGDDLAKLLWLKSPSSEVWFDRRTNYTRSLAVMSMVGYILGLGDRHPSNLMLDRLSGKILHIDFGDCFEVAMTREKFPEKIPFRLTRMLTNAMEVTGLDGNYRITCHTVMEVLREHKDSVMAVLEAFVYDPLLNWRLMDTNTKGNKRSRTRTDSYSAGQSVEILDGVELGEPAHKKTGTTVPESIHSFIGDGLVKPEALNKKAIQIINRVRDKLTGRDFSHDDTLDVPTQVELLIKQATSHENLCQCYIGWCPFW

**Q.** With `C[C@H]1COCCN1c1cc(C2(S(=O)(=O)CCCO)CC2)nc(-c2ccc(NC(=O)NC3CCS(=O)(=O)C3)cc2)n1` (stereo partly drawn) [Example 36cr, 3-(1,1-dioxothiolan-3-yl)-1-[4-[4-[1-(3-hydroxypropylsulfonyl)cyclopropyl]-6-[(3S)-3-methylmorpholin-4-yl]pyrimidin-2-yl]phenyl]urea] as the compound, how does the pIC50 read?
**A.** Its pIC50 is 7.36.

**Q.** `C[C@H]1COCCN1c1cc(C2(S(=O)(=O)CCCO)CC2)nc(-c2ccc(NC(=O)NCC(=O)N(C)C)cc2)n1` [Example 36cs, 2-[[4-[4-[1-(3-hydroxypropylsulfonyl)cyclopropyl]-6-[(3S)-3-methylmorpholin-4-yl]pyrimidin-2-yl]phenyl]carbamoylamino]-N,N-dimethylactamide] was tested. Which pIC50 did it give?
**A.** Its pIC50 is 5.93.

**Q.** With `C[C@H]1COCCN1c1cc(C2(S(=O)(=O)c3ccccn3)CC2)nc(-c2ccc(NC(=O)Nc3ncns3)cc2)n1` [Example 36ct, 1-[4-[4-[(3S)-3-methylmorpholin-4-yl]-6-(1-pyridin-2-ylsulfonylcyclopropyl)pyrimidin-2-yl]phenyl]-3-(1,2,4-thiadiazol-5-yl)urea] as the compound, how does the pIC50 read?
**A.** The pIC50 was 8.80.

**Q.** With `C[C@H]1COCCN1c1cc(C2(S(=O)(=O)c3ccccn3)CC2)nc(-c2ccc(NC(=O)NCc3ncc[nH]3)cc2)n1` [Example 36cu, 3-(1H-imidazol-2-ylmethyl)-1-[4-[4-[(3S)-3-methymorpholin-4-yl]-6-(1-pyridin-2-ylsulfonylcyclopropyl)pyrimidin-2-yl]phenyl]urea] as the compound, how does the pIC50 read?
**A.** Its pIC50 is 7.16.

**Q.** With `C[C@H]1COCCN1c1cc(C2(S(=O)(=O)c3ccncc3)CC2)nc(-c2ccc(NC(=O)NCc3ncc[nH]3)cc2)n1` [Example 36cw, 3-(1H-imidazol-2-ylmethyl)-1-[4-[4-[(3S)-3-methylmorpholin-4-yl]-6-(1-pyridin-4-ylsulfonylcyclopropyl)pyrimidin-2-yl]phenyl]urea] as the compound, how does the pIC50 read?
**A.** The pIC50 was 7.31.

**Q.** How did the pIC50 turn out when `C[C@H]1COCCN1c1cc(C2(S(=O)(=O)c3ccncc3)CC2)nc(-c2ccc(NC(=O)NC3(CO)CC3)cc2)n1` [Example 36cx, 3-[1-(hydroxymethyl)cyclopropyl]-1-[4-[4-[(3S)-3-methylmorpholin-4-yl]-6-(1-pyridin-4-ylsulfonylcyclopropyl)pyrimidin-2-yl]phenyl]urea] was run?
**A.** Its pIC50 is 6.55.

**Q.** With `CNC(=O)Nc1ccc(-c2nc(N3CCOC[C@@H]3C)cc(C3(S(=O)(=O)c4ccccc4)CCOCC3)n2)cc1` [Example 36cy, 1-[4-[4-[4-(benzenesulfonyl)oxan-4-yl]-6-[(3S)-3-methylmorpholin-4-yl]pyrimidin-2-yl]phenyl]-3-methylurea] as the compound, how does the pIC50 read?
**A.** Its pIC50 is 7.32.

**Q.** `CCNC(=O)Nc1ccc(-c2nc(N3CCOC[C@@H]3C)cc(C3(S(=O)(=O)c4ccccc4)CCOCC3)n2)cc1` [Example 36cz, 3-[4-[4-[4-(benzenesulfonyl)oxan-4-yl]-6-[(3S)-3-methylmorpholin-4-yl]pyrimidin-2-yl]phenyl]-1-ethylurea] was tested. Which pIC50 did it give?
**A.** The pIC50 was 7.42.

**Q.** With `CNC(=O)Nc1ccc(-c2nc(N3CCOC[C@@H]3C)cc(C3(S(=O)(=O)C4CC4)CCC3)n2)cc1` [Example 36d, 1-[4-[4-(1-cyclopropylsulfonylcyclobutyl)-6-[(3S)-3-methylmorpholin-4-yl]pyrimidin-2-yl]phenyl]-3-methylurea] as the compound, how does the pIC50 read?
**A.** Its pIC50 is 8.50.

**Q.** `C[C@H]1COCCN1c1cc(C2(S(=O)(=O)c3ccccc3)CCOCC2)nc(-c2ccc(NC(=O)NC3CC3)cc2)n1` [Example 36da, 1-[4-[4-[4-(benzenesulfonyl)oxan-4-yl]-6-[(3S)-3-methylmorpholin-4-yl]pyrimidin-2-yl]phenyl]-3-cyclopropylurea] was tested. Which pIC50 did it give?
**A.** The pIC50 was 7.48.

**Q.** `C[C@H]1COCCN1c1cc(C2(S(=O)(=O)c3ccccc3)CCOCC2)nc(-c2ccc(NC(=O)NCCO)cc2)n1` [Example 36db, 1-[4-[4-[4-(benzenesulfonyl)oxan-4-yl]-6-[(3S)-3-methylmorpholin-4-yl]pyrimidin-2-yl]phenyl]-3-(2-hydroxyethyl)urea] was tested. Which pIC50 did it give?
**A.** The pIC50 was 7.68.

**Q.** How did the pIC50 turn out when `O=C(Nc1ccc(-c2nc(N3CCOCC3)cc(C3(S(=O)(=O)c4ccccc4)CC3)n2)cc1)NC1CC1` [Example 36dc, 1-[4-[4-[1-(benzenesulfonyl)cyclopropyl]-6-morpholin-4-ylpyrimidin-2-yl]phenyl]-3-cyclopropylurea] was run?
**A.** Its pIC50 is 8.00.

**Q.** How did the pIC50 turn out when `CCNC(=O)Nc1ccc(-c2nc(N3CCOCC3)cc(C3(S(=O)(=O)c4ccccc4)CC3)n2)cc1` [Example 36dd, 3-[4-[4-[1-(benzenesulfonyl)cyclopropyl]-6-morpholin-4-ylpyrimidin-2-yl]phenyl]-1-ethylurea] was run?
**A.** The pIC50 was 8.54.

**Q.** How did the pIC50 turn out when `O=C(NCCO)Nc1ccc(-c2nc(N3CCOCC3)cc(C3(S(=O)(=O)c4ccccc4)CC3)n2)cc1` [Example 36de, 1-[4-[4-[1-(benzenesulfonyl)cyclopropyl]-6-morpholin-4-ylpyrimidin-2-yl]phenyl]-3-(2-hydroxyethyl)urea] was run?
**A.** Its pIC50 is 8.41.

**Q.** `CNC(=O)Nc1ccc(-c2nc(N3CCOCC3)cc(C3(S(=O)(=O)c4ccccc4)CC3)n2)cc1` [Example 36df, 3-[4-[4-[1-(benzenesulfonyl)cyclopropyl]-6-morpholin-4-ylpyrimidin-2-yl]phenyl]-1-methylurea] was tested. Which pIC50 did it give?
**A.** Its pIC50 is 8.15.

**Q.** With `O=C(NCCCO)Nc1ccc(-c2nc(N3CCOCC3)cc(C3(S(=O)(=O)c4ccccc4)CC3)n2)cc1` [Example 36dg, 1-[4-[4-[1-(benzenesulfonyl)cyclopropyl]-6-morpholin-4-ylpyrimidin-2-yl]phenyl]-3-(3-hydroxypropyl)urea] as the compound, how does the pIC50 read?
**A.** Its pIC50 is 7.79.

**Q.** `N#CCCNC(=O)Nc1ccc(-c2nc(N3CCOCC3)cc(C3(S(=O)(=O)c4ccccc4)CC3)n2)cc1` [Example 36dh, 1-[4-[4-[1-(benzenesulfonyl)cyclopropyl]-6-morpholin-4-ylpyrimidin-2-yl]phenyl]-3-(2-cyanoethyl)urea] was tested. Which pIC50 did it give?
**A.** The pIC50 was 8.47.

**Q.** How did the pIC50 turn out when `O=C(Nc1ccc(-c2nc(N3CCOCC3)cc(C3(S(=O)(=O)c4ccccc4)CC3)n2)cc1)Nc1ncns1` [Example 36di, 1-[4-[4-[1-(benzenesulfonyl)cyclopropyl]-6-morpholin-4-ylpyrimidin-2-yl]phenyl]-3-(1,2,4-thiadiazol-5-yl)urea] was run?
**A.** The pIC50 was 8.03.

**Q.** `Cn1cc(NC(=O)Nc2ccc(-c3nc(N4CCOCC4)cc(C4(S(=O)(=O)c5ccccc5)CC4)n3)cc2)cn1` [Example 36dj, 3-[4-[4-[1-(benzenesulfonyl)cyclopropyl]-6-morpholin-4-ylpyrimidin-2-yl]phenyl]-1-(1-methylpyrazol-4-yl)urea] was tested. Which pIC50 did it give?
**A.** The pIC50 was 8.05.

**Q.** How did the pIC50 turn out when `Cc1csc(S(=O)(=O)C2(c3cc(N4CCOC[C@@H]4C)nc(-c4ccc(NC(=O)NC5CC5)cc4)n3)CCCC2)n1` [Example 36dk, 3-cyclopropyl-1-[4-[4-[(3S)-3-methylmorpholin-4-yl]-6-[1-[(4-methyl-1,3-thiazol-2-yl)sulfonyl)cyclopentyl]pyrimidin-2-yl]phenyl]urea] was run?
**A.** The pIC50 was 8.04.

**Q.** `Cc1csc(S(=O)(=O)C2(c3cc(N4CCOC[C@@H]4C)nc(-c4ccc(NC(=O)NCCO)cc4)n3)CCCC2)n1` [Example 36dl, 3-(2-hydroxyethyl)-1-[4-[4-[(3S)-3-methylmorpholin-4-yl]-6-[1-[(4-methyl-1,3-thiazol-2-yl)sulfonyl]cyclopentyl]pyrimidin-2-yl]phenyl]urea] was tested. Which pIC50 did it give?
**A.** Its pIC50 is 8.40.

**Q.** With `Cc1csc(S(=O)(=O)C2(c3cc(N4CCOC[C@@H]4C)nc(-c4ccc(NC(=O)NCCC#N)cc4)n3)CCCC2)n1` [Example 36dm, 3-(2-cyanoethyl)-1-[4-[4-[(3S)-3-methylmorpholin-4-yl]-6-[1-[(4-methyl-1,3-thiazol-2-yl)sulfonyl]cyclopentyl]pyrimidin-2-yl]phenyl]urea] as the compound, how does the pIC50 read?
**A.** The pIC50 was 7.53.

**Q.** `Cc1csc(S(=O)(=O)C2(c3cc(N4CCOC[C@@H]4C)nc(-c4ccc(NC(=O)NCCCO)cc4)n3)CCCC2)n1` [Example 36dn, 3-(3-hydroxypropyl)-1-[4-[4-[(3S)-3-methylmorpholin-4-yl]-6-[1-[(4-methyl-1,3-thiazol-2-yl)sulfonyl]cyclopentyl]pyrimidin-2-yl]phenyl]urea] was tested. Which pIC50 did it give?
**A.** The pIC50 was 7.86.

**Q.** How did the pIC50 turn out when `C[C@H]1COCCN1c1cc(C2(S(=O)(=O)c3ccccc3)CC2)nc(-c2ccc(NC(=O)N3CCC(O)C3)cc2)n1` (stereo partly drawn) [Example 36do, N-[4-[4-[1-(benzenesulfonyl)cyclopropyl]-6-[(3S)-3-methylmorpholin-4-yl]pyrimidin-2-yl]phenyl]-3-hydroxypyrrolidine-1-carboxamide] was run?
**A.** Its pIC50 is 7.56.

**Q.** `C[C@H]1COCCN1c1cc(C2(S(=O)(=O)c3ccccc3)CC2)nc(-c2ccc(NC(=O)NCC(=O)O)cc2)n1` [Example 36dp, 2-[[4-[4-[1-(benzenesulfonyl)cyclopropyl]-6-[(3S)-3-methylmorpholin-4-yl]pyrimidin-2-yl]phenyl]carbamoylamino]aceticacid] was tested. Which pIC50 did it give?
**A.** Its pIC50 is 7.97.

**Q.** How did the pIC50 turn out when `C[C@H]1COCCN1c1cc(C2(S(=O)(=O)c3ccccc3)CC2)nc(-c2ccc(NC(=O)NCC(=O)N(C)C)cc2)n1` [Example 36dq, 2-[[4-[4-[1-(benzenesulfonyl)cyclopropyl]-6-[(3S)-3-methylmorpholin-4-yl]pyrimidin-2-yl]phenyl]carbamoylamino]-N,N-dimethylacetamide] was run?
**A.** The pIC50 was 7.61.

**Q.** With `C[C@H]1COCCN1c1cc(C2(S(=O)(=O)c3ccccc3)CC2)nc(-c2ccc(NC(=O)N(C)C3CC3)cc2)n1` [Example 36dr, 3-[4-[4-[1-(benzenesulfonyl)cyclopropyl]-6-[(3S)-3-methylmorpholin-4-yl]pyrimidin-2-yl]phenyl]-1-cyclopropyl-1-methylurea] as the compound, how does the pIC50 read?
**A.** The pIC50 was 6.53.

**Q.** `C[C@H]1COCCN1c1cc(C2(S(=O)(=O)c3ccccc3)CC2)nc(-c2ccc(NC(=O)NCCF)cc2)n1` [Example 36ds, 1-[4-[4-[1-(benzenesulfonyl)cyclopropyl]-6-[(3S)-3-methylmorpholin-4-yl]pyrimidin-2-yl]phenyl]-3-(2-fluoroethyl)urea] was tested. Which pIC50 did it give?
**A.** The pIC50 was 9.01.

**Q.** With `C[C@H]1COCCN1c1cc(C2(S(=O)(=O)c3ccccc3)CCC2)nc(-c2ccc(NC(=O)NCCC#N)cc2)n1` [Example 36dt, 1-[4-[4-[1-(benzenesulfonyl)cyclobutyl]-6-[(3S)-3-methylmorpholin-4-yl]pyrimidin-2-yl]phenyl]-3-(2-cyanoethyl)urea] as the compound, how does the pIC50 read?
**A.** The pIC50 was 9.43.
